Tests used:
[1] = AUC in human LG0787F cells xenografted in NSG mouse at 1 mg/kg/day, po qd; assay type: ADME, organism-based; parameters: dose 1 mg/kg/day, route po; settings: in vivo
NCI-H1048 = test: Anticancer activity against human NCI-H1048 cells; assay type: functional, cell-based
[2] = Cmax in mouse at 30 mg/kg, po; assay type: ADME, organism-based; parameters: dose 30 mg/kg, route po; settings: in vivo
[3] = Total plasma clearance in monkey at 0.1 mg/kg, iv; assay type: ADME, organism-based, Macaca mulatta; settings: rhesus monkey
[4] = Drug concentration at steady state in human LG0787F cells xenografted in NSG mouse at 0.5 mg/kg/day infused continuously over 6 days using Alzet pump; assay type: ADME, organism-based; settings: in vivo, 144 h, time 6 day
Cytochrome P450 1A2 = Cytochrome P450 1A2 (Homo sapiens, UniProt P05177); test: Inhibition of CYP1A2 (unknown origin); assay type: ADME
Chain of Cytochrome P450 1A2 (P05177 whole entry): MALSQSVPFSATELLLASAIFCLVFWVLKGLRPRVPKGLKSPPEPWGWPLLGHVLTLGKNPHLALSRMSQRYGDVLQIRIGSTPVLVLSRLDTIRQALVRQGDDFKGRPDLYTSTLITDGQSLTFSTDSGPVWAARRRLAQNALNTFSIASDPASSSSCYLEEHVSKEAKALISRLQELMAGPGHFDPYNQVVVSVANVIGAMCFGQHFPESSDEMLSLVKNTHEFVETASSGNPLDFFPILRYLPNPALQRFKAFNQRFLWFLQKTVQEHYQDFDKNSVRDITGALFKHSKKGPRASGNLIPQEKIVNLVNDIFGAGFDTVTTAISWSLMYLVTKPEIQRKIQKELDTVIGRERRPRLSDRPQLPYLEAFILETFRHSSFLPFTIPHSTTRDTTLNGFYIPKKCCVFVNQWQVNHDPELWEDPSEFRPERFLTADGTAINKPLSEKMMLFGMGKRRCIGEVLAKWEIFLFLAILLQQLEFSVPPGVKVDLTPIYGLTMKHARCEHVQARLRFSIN

[5] = biological target: CREB-binding protein (Homo sapiens) (UniProt Q92793)
Description: Binding affinity to CREBBP (unknown origin) assessed as change in melting temperature of protein

HCC95 = test: Anticancer activity against human HCC95 cells; assay type: functional, cell-based
[6] = Elimination half life in monkey at 0.1 mg/kg, iv; assay type: ADME, organism-based, Macaca mulatta; settings: rhesus monkey, in vivo, read-out: beta t1/2 (converted)
[7] = biological target: Bromodomain-containing protein 3 (Homo sapiens, UniProt Q15059); test: Inhibition of human BRD3 measured by TR-FRET assay
Chain of Bromodomain-containing protein 3 (Q15059 whole entry): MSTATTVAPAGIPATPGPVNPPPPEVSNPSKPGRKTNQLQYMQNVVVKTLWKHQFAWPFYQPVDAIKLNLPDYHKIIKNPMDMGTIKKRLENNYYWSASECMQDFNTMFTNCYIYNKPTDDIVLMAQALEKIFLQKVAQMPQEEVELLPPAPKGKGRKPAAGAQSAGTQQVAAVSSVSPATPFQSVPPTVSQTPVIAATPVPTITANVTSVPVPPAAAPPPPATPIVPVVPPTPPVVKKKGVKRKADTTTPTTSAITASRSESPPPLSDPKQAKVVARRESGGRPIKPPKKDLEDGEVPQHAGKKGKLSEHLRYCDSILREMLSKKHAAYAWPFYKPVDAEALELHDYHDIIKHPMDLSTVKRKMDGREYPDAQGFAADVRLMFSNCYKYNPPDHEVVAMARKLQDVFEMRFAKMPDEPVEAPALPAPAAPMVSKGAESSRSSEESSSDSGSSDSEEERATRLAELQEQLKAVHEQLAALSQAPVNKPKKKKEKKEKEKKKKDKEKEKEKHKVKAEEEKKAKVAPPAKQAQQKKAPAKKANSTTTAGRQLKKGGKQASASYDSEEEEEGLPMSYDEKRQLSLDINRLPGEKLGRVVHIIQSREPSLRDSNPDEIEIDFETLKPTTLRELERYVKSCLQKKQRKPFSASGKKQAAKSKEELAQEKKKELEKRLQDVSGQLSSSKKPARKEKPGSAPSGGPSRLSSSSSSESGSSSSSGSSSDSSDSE

[8] = Volume of distribution at steady state in rat at 1 mg/kg, iv; assay type: ADME, organism-based; settings: in vivo, read-out: Vdss
[9] = Antitumour activity against human LG0787F cells xenografted in po dosed NSG mouse assessed as minimum effective concentration; assay type: functional; settings: dose 0.25 mg/kg/day
[10] = Antitumour activity against patient-derived human PAT129 cells xenografted in mouse model at 1.6 mg/kg, po bid, 5 days on and 2 days off for 2 weeks; assay type: functional; settings: PAT129, 120 h, time 5 day, read-out: TGI
[11] = Antitumour activity against human LG0787F cells xenografted in po dosed NSG mouse assessed as minimum effective concentration measured after 12 hrs; assay type: functional; settings: dose 0.25 mg/kg/day
[12] = Oral bioavailability in monkey at 5 mg/kg; assay type: ADME, organism-based, Macaca mulatta; settings: rhesus monkey, in vivo
[13] = Antitumour activity against patient-derived human PAT78 cells xenografted in mouse model at 1.6 mg/kg, po bid, 5 days on and 2 days off for 2 weeks; assay type: functional; settings: PAT78, 120 h, time 5 day, read-out: TGI
[14] = Antitumour activity against patient-derived human PAT149 cells xenografted in mouse model at 1.6 mg/kg, po bid, 5 days on and 2 days off for 2 weeks; assay type: functional; settings: PAT149, 120 h, time 5 day, read-out: TGI
A549 = test: Anticancer activity against human A549 cells; assay type: functional, cell-based
HCC44 = test: Anticancer activity against human HCC44 cells; assay type: functional, cell-based
[15] = Antitumour activity against patient-derived human PAT140 cells xenografted in mouse model at 1.6 mg/kg, po bid, 5 days on and 2 days off for 2 weeks; assay type: functional; settings: PAT140, 120 h, time 5 day, read-out: TGI
[16] = Efflux ratio of permeability in human Caco-2 cells; assay type: ADME, cell-based
NCI-H1623 = test: Anticancer activity against human NCI-H1623 cells; assay type: functional, cell-based
[17] = Antitumour activity against patient-derived human PAT014 cells xenografted in mouse model at 1.6 mg/kg, po bid, 5 days on and 2 days off for 2 weeks; assay type: functional; settings: PAT014, 120 h, time 5 day, read-out: TGI
[18] = Antitumour activity against patient-derived human LG0787F cells xenografted in mouse model at 1.6 mg/kg, po bid, 5 days on and 2 days off for 2 weeks; assay type: functional; settings: 120 h, time 5 day, read-out: TGI
DMS-53 = test: Anticancer activity against human DMS-53 cells; assay type: functional, cell-based
[19] = Oral bioavailability in mouse at 5 mg/kg; assay type: ADME, organism-based; settings: in vivo
[20] = Antitumour activity against human LG0787F cells xenografted in NSG mouse assessed as tumour growth inhibition at 0.25 mg/kg/day, po bid; assay type: functional; settings: read-out: TGI
[21] = Total plasma clearance in dog at 0.1 mg/kg, iv; assay type: ADME, organism-based, Canis lupus familiaris
[22] = Elimination half life in mouse at 1.75 mg/kg, iv; assay type: ADME, organism-based; settings: in vivo, read-out: beta t1/2 (converted)
[23] = Antitumour activity against patient-derived human PAT136 cells xenografted in mouse model at 1.6 mg/kg, po bid, 5 days on and 2 days off for 2 weeks; assay type: functional; settings: PAT136, 120 h, time 5 day, read-out: TGI
NCI-H1793 = test: Anticancer activity against human NCI-H1793 cells; assay type: functional, cell-based
[24] = Elimination half life in dog at 0.1 mg/kg, iv; assay type: ADME, organism-based, Canis lupus familiaris; settings: in vivo, read-out: beta t1/2 (converted)
[25] = Metabolic stability in mouse liver microsomes assessed as parent compound remaining at 0.5 uM after 10 mins; assay type: ADME, Microsome; settings: read-out: Stability
[26] = biological target: Histone acetyltransferase p300 (Homo sapiens) (UniProt Q09472)
Chain of Histone acetyltransferase p300 (Homo sapiens) (Q09472 whole entry): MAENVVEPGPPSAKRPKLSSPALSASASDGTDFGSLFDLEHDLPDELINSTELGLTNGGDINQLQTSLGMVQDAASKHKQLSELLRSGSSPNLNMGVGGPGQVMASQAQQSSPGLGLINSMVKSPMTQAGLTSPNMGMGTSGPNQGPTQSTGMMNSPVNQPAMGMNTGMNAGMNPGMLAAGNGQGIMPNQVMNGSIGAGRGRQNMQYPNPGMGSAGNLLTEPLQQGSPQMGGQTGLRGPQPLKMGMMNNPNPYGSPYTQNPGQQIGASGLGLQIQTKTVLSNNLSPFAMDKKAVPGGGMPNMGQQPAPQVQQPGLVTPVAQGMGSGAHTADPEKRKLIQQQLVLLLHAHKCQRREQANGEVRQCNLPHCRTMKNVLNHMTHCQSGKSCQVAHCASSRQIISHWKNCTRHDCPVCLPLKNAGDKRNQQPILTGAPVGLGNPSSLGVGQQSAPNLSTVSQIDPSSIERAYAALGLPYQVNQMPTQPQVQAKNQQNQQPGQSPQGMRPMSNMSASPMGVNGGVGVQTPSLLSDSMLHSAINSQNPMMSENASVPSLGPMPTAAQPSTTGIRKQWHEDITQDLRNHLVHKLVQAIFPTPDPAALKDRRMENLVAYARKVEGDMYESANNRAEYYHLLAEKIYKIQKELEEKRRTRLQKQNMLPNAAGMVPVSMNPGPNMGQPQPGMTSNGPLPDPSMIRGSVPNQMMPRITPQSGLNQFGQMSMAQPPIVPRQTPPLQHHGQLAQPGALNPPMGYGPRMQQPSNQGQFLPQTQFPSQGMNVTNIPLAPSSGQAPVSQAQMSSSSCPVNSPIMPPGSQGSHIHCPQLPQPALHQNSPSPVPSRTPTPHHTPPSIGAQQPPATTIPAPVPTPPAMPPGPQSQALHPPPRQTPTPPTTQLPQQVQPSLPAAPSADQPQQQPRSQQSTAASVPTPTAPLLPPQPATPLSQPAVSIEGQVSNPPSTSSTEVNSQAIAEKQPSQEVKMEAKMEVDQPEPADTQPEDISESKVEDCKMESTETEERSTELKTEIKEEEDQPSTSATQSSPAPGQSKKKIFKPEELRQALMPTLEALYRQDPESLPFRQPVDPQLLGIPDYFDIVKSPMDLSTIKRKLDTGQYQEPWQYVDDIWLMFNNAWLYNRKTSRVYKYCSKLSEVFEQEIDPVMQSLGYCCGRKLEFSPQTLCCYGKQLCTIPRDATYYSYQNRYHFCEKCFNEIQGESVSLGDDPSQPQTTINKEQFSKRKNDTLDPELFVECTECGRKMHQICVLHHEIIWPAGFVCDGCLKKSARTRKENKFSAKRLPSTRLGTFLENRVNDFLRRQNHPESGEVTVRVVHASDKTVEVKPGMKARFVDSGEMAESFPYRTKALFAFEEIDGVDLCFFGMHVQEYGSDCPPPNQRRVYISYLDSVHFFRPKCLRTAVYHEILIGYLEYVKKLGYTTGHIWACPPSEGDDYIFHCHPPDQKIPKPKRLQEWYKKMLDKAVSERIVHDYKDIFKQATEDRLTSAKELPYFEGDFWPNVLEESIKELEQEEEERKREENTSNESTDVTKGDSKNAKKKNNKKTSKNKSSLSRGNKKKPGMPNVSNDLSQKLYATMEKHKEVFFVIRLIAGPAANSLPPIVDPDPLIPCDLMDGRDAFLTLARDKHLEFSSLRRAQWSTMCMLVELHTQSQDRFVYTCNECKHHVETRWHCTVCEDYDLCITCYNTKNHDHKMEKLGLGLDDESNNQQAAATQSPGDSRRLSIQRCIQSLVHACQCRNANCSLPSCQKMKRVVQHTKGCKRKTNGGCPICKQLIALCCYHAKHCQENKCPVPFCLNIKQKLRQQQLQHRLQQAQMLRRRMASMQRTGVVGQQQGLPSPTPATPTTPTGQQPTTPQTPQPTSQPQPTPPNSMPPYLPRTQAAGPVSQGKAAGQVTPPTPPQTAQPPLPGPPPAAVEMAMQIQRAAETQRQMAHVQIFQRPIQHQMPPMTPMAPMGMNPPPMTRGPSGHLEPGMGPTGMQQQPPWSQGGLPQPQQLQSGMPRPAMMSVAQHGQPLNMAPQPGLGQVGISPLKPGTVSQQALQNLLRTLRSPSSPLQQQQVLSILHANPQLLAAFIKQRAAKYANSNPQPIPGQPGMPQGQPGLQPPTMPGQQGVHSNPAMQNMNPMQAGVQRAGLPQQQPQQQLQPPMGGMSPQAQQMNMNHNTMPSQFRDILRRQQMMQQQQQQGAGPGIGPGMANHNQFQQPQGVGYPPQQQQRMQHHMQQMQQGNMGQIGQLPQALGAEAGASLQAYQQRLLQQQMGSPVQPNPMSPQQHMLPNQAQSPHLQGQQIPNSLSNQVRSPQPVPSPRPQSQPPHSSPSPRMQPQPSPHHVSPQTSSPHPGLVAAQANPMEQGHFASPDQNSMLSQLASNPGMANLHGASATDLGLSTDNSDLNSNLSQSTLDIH
Description: Binding affinity to EP300 (unknown origin) assessed as change in melting temperature of protein

[27] = Antitumour activity against human LG0787F cells xenografted in NSG mouse assessed as tumour growth inhibition at 1 mg/kg/day, po qd; assay type: functional; settings: read-out: TGI
NCI-H441 = test: Anticancer activity against human NCI-H441 cells; assay type: functional, cell-based
[28] = Antitumour activity against patient-derived human BR1367F cells xenografted in mouse model at 1.6 mg/kg, po bid, 5 days on and 2 days off for 2 weeks; assay type: functional; settings: 120 h, time 5 day, read-out: TGI
NCI-H2170 = test: Anticancer activity against human NCI-H2170 cells; assay type: functional, cell-based
[29] = Antitumour activity against patient-derived human PAT138 cells xenografted in mouse model at 1.6 mg/kg, po bid, 5 days on and 2 days off for 2 weeks; assay type: functional; settings: PAT138, 120 h, time 5 day, read-out: TGI
[30] = Oral bioavailability in dog at 5 mg/kg; assay type: ADME, organism-based, Canis lupus familiaris; settings: in vivo
[31] = Drug concentration at steady state in human LG0787F cells xenografted in NSG mouse infused continuously over 6 days using Alzet pump; assay type: ADME; settings: iv, 144 h, time 6 day
Cytochrome P450 2D6 = Cytochrome P450 2D6 (Homo sapiens, UniProt P10635); test: Inhibition of CYP2D6 (unknown origin); assay type: ADME
Chain of Cytochrome P450 2D6 (P10635 whole entry): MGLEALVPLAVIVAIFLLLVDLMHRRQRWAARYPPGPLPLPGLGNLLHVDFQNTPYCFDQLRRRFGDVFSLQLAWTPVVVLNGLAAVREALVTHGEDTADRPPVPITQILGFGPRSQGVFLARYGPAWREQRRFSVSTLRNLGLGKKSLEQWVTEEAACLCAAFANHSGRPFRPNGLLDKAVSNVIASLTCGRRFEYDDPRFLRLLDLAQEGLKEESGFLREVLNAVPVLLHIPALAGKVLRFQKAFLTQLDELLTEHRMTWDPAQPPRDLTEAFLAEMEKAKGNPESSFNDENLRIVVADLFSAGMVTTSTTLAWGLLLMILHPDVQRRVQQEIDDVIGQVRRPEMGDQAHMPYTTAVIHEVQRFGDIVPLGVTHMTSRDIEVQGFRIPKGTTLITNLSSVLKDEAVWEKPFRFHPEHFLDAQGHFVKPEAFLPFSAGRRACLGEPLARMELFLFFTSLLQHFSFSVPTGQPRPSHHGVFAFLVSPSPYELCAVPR

[32] = Anticancer activity against human HCC33 cells; assay type: functional, cell-based
[33] = Antitumour activity against patient-derived human PAT130 cells xenografted in mouse model at 1.6 mg/kg, po bid, 5 days on and 2 days off for 2 weeks; assay type: functional; settings: PAT130, 120 h, time 5 day, read-out: TGI
[34] = Cmax in human LG0787F cells xenografted in NSG mouse at 1 mg/kg/day, po bid; assay type: ADME, organism-based; parameters: dose 1 mg/kg/day, route po; settings: in vivo
NCI-H520 = test: Anticancer activity against human NCI-H520 cells; assay type: functional, cell-based
NCI-H2009 = test: Anticancer activity against human NCI-H2009 cells; assay type: functional, cell-based
[35] = Inhibition of c-MYC expression in human JJN3R cells measured after 4 hrs; assay type: functional, cell-based; settings: JJN-3R
NCI-H211 = test: Anticlonogenic activity against human NCI-H211 cells; assay type: functional, cell-based
[36] = Metabolic stability in human liver microsomes assessed as parent compound remaining at 0.5 uM after 10 mins; assay type: ADME, Microsome; settings: read-out: Stability

Cc1nnn(C)c1-c1cnc2c3ccc(C(C)(C)O)cc3n([C@H](c3ccccc3)C3CCOCC3)c2c1 [EZOBRESIB]
AUC [1]: 0.6 µM·h | IC50 (NCI-H1048): > 500 nM | Cmax [2]: 11900 nM | clearance [3]: 32 mL/min/kg | Css [4]: 10 nM | IC50 (Cytochrome P450 1A2): > 20000 nM | ΔTm [5]: 5.6 °C | IC50 (HCC95): 8.1 nM | half-life [6]: 2 h | IC50 [7]: 1.1 nM | Vd [8]: 4.3 L/kg | MEC [9]: 0.03 µM | inhibition in vivo at 1.6 mg/kg [10]: 65% | MEC [11]: 10 nM | bioavailability [12]: 16% | inhibition in vivo at 1.6 mg/kg [13]: 47% | inhibition in vivo at 1.6 mg/kg [14]: 101% | IC50 (A549): > 500 nM | IC50 (HCC44): 2.7 nM | inhibition in vivo at 1.6 mg/kg [15]: 59% | efflux ratio [16]: 2.6 | IC50 (NCI-H1623): > 500 nM | inhibition in vivo at 1.6 mg/kg [17]: 70% | inhibition in vivo at 1.6 mg/kg [18]: 110% | IC50 (DMS-53): 0.29 nM | bioavailability [19]: 100% | inhibition in vivo at 0.25 mg/kg/day [20]: 46% | clearance [21]: 15 mL/min/kg | half-life [22]: 1.8 h | inhibition in vivo at 1.6 mg/kg [23]: 92% | IC50 (NCI-H1793): > 500 nM | half-life [24]: 5.6 h | remaining at 10 min, 0.5 µM [25]: 66% | ΔTm [26]: 9.5 °C | inhibition in vivo at 1 mg/kg/day [27]: 50% | IC50 (NCI-H441): 118 nM | inhibition in vivo at 1.6 mg/kg [28]: 68% | IC50 (NCI-H2170): 91 nM | inhibition in vivo at 1.6 mg/kg [29]: 75% | bioavailability [30]: 59% | Css [31]: 17 nM | IC50 (Cytochrome P450 2D6): > 20000 nM | IC50 [32]: 0.23 nM | inhibition in vivo at 1.6 mg/kg [33]: 76% | Cmax [34]: 40 nM | IC50 (NCI-H520): > 500 nM | IC50 (NCI-H2009): > 500 nM | IC50 [35]: 0.7 nM | IC50 (NCI-H211): 5.6 nM | remaining at 10 min, 0.5 µM [36]: 82%

Source: ChEMBL document CHEMBL5053512, “Discovery and Preclinical Pharmacology of an Oral Bromodomain and Extra-Terminal (BET) Inhibitor Using Scaffold-Hopping and Structure-Guided Drug Design” (J Med Chem, 2021)
